According to patent US20220062240A1, “METHODS OF TREATING CANCER USING A CLK INHIBITOR” (BioSplice Therapeutics, Inc., priority 2018, published 2022):
Where two headings read alike, the source gives them in different places. Blank lines part the entries; values can stand above or below the compound they belong to.

Tests used:
CLK2 = target: T1, CLK2 (Homo sapiens, UniProt P49760); experiment: CLK2 kinase activity assay (Z-lyte, Ser/Thr 6 peptide); type: biochemical; details: recombinant CLK2 kinase, ATP 60 μM; read-out: EC50
T1 construct: purchased Thermo Fisher (Life Technologies), Z'-LYTE Kinase Assay Kits
Procedure: All reactions were performed in duplicate.

BT-549 = experiment: CellTiter-Glo Viability Assay, breast cancer; type: cell-based; details: Homo sapiens, 96 h; BT-549, breast cancer, four days; read-out: EC50
CAMA1 = experiment: CellTiter-Glo Viability Assay, breast cancer; type: cell-based; details: Homo sapiens, CAMA-1, 96 h; CAMA1, breast cancer, four days; read-out: EC50
DU4475 = experiment: CellTiter-Glo Viability Assay, breast cancer; type: cell-based; details: Homo sapiens, DU-4475, 96 h; DU4475, breast cancer, four days; read-out: EC50
HCC1599 = experiment: CellTiter-Glo Viability Assay, breast cancer; type: cell-based; details: Homo sapiens, 96 h; HCC1599, breast cancer, four days; read-out: EC50
MCF7 = experiment: CellTiter-Glo Viability Assay, breast cancer; type: cell-based; details: Homo sapiens, 96 h; MCF7, breast cancer, four days; read-out: EC50
MDA-MB-231-Luc = experiment: CellTiter-Glo Viability Assay, breast cancer; type: cell-based; details: Homo sapiens, 96 h; MDA-MB-231-Luc, breast cancer, four days; read-out: EC50
T47D = experiment: CellTiter-Glo Viability Assay, breast cancer; type: cell-based; details: Homo sapiens, 96 h, breast cancer, four days, read-out: EC50
ZR-75-1 = experiment: CellTiter-Glo Viability Assay, breast cancer; type: cell-based; details: Homo sapiens, 96 h; ZR-75-1, breast cancer, four days; read-out: EC50
all 50 cell lines = experiment: CellTiter-Glo Viability Assay, average across all cell lines; type: cell-based; details: Homo sapiens; across all 50 cell lines; read-out: average EC50 for inhibition of cancer cell proliferation
In short: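 Cancer cell lines of several tumour types plated at 300-3,000 cells/well and exposed to compound in duplicate for four days at 37° C, 5% CO2, with DMSO-treated controls. Viability read by CellTiter-Glo luminescence (ATP content); EC50 derived from dose-response curves.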

[1] = system: colorectal cancer (6 cell lines); experiment: CellTiter-Glo Viability Assay, colorectal cancer; type: cell-based; details: Homo sapiens, inhibition of cancer cell proliferation
[2] = system: haematopoietic & lymphoid tumors (13 cell lines); experiment: CellTiter-Glo Viability Assay, haematopoietic & lymphoid tumors; type: cell-based; details: Homo sapiens, inhibition of cancer cell proliferation
[3] = system: liver cancer (3 cell lines); experiment: CellTiter-Glo Viability Assay, liver cancer; type: cell-based; details: Homo sapiens, inhibition of cancer cell proliferation
[4] = system: lung cancer (4 cell lines); experiment: CellTiter-Glo Viability Assay, lung cancer; type: cell-based; details: Homo sapiens, inhibition of cancer cell proliferation
[5] = system: ovarian cancer (4 cell lines); experiment: CellTiter-Glo Viability Assay, ovarian cancer; type: cell-based; details: Homo sapiens, inhibition of cancer cell proliferation
[6] = system: pancreatic cancer (8 cell lines); experiment: CellTiter-Glo Viability Assay, pancreatic cancer; type: cell-based; details: Homo sapiens, inhibition of cancer cell proliferation
[7] = system: prostate cancer (5 cell lines); experiment: CellTiter-Glo Viability Assay, prostate cancer; type: cell-based; details: Homo sapiens
CLK3 = CLK3 (Homo sapiens, UniProt P49761); experiment: CLK3 kinase activity assay (Z-lyte, Ser/Thr 18 peptide)
[8] = HCT-116, HCT116 cell line, read-out: Colorectal cancer, EC50 (μM) HCT116
[9] = HT-29, HT29 cell line, read-out: Colorectal cancer, EC50 (μM) HT29
[10] = SW-620, SW620 cell line, read-out: Colorectal cancer, EC50 (μM) SW620
[11] = DLD-1 cell line, read-out: Colorectal cancer, EC50 (μM) DLD-1
[12] = SW48 cell line, read-out: Colorectal cancer, EC50 (μM) SW48
[13] = SW480 cell line, read-out: Colorectal cancer, EC50 (μM) SW480
[14] = DND41, DND-41 cell line, read-out: Haematopoietic & Lymphoid tumors, EC50 (μM) DND-41
[15] = MV4-11, MV-4-11 cell line, read-out: Haematopoietic & Lymphoid tumors, EC50 (μM) MV-4-11
[16] = Rec1, REC-1 cell line, read-out: Haematopoietic & Lymphoid tumors, EC50 (μM) REC-1
[17] = SU-DHL-4, SUDHL4 cell line, read-out: Haematopoietic & Lymphoid tumors, EC50 (μM) SUDHL4
[18] = HL-60 cell line, read-out: Haematopoietic & Lymphoid tumors, EC50 (μM) HL-60
[19] = JM1 cell line, read-out: Haematopoietic & Lymphoid tumors, EC50 (μM) JM1
[20] = JURKAT, Clone E6-1 cell line, read-out: Haematopoietic & Lymphoid tumors, EC50 (μM) JURKAT, Clone E6-1
[21] = JeKo-1 cell line, read-out: Haematopoietic & Lymphoid tumors, EC50 (μM) JeKo-1
[22] = KASUMI-1 cell line, read-out: Haematopoietic & Lymphoid tumors, EC50 (μM) KASUMI-1
[23] = Loucy cell line, read-out: Haematopoietic & Lymphoid tumors, EC50 (μM) Loucy
[24] = MOLT-4 cell line, read-out: Haematopoietic & Lymphoid tumors, EC50 (μM) MOLT-4
[25] = TF-1 cell line, read-out: Haematopoietic & Lymphoid tumors, EC50 (μM) TF-1
[26] = TOLEDO cell line, read-out: Haematopoietic & Lymphoid tumors, EC50 (μM) TOLEDO
[27] = SNU-398, SNU398 cell line, read-out: Liver cancer, EC50 SNU398
[28] = HEPG2 cell line, read-out: Liver cancer, EC50 HEPG2
[29] = PLC/PRF/5 cell line, read-out: Liver cancer, EC50 PLC/PRF/5
[30] = A-427, A427 cell line, read-out: Lung cancer, EC50 (μM) A427
[31] = HCC78, HCC-78 cell line, read-out: Lung cancer, EC50 (μM) HCC-78
[32] = NCI-H460 cell line, read-out: Lung cancer, EC50 (μM) NCI-H460
[33] = NCI-H522 cell line, read-out: Lung cancer, EC50 (μM) NCI-H522
[34] = PA-1, PA1 cell line, read-out: Ovarian cancer, EC50 (μM) PA1
[35] = TOV112D, TOV-112D cell line, read-out: Ovarian cancer, EC50 (μM) TOV-112D
[36] = OV-90 cell line, read-out: Ovarian cancer, EC50 (μM) OV-90
[37] = OVCAR-3 cell line, read-out: Ovarian cancer, EC50 (μM) OVCAR-3
[38] = BXPC-3, BxPC3 cell line, read-out: Pancreatic cancer, EC50 BxPC3
[39] = CAPAN-1, Capan1 cell line, read-out: Pancreatic cancer, EC50 Capan1
[40] = Capan-2, Capan2 cell line, read-out: Pancreatic cancer, EC50 Capan2
[41] = MIA PaCa-2 cell line, read-out: Pancreatic cancer, EC50 MIA PaCa-2
[42] = PANC 05.04 cell line, read-out: Pancreatic cancer, EC50 PANC 05.04
[43] = PANC-1 cell line, read-out: Pancreatic cancer, EC50 PANC-1
[44] = UPAFII cell line, read-out: Pancreatic cancer, EC50 UPAFII
[45] = DU-145, read-out: Prostate cancer EC50 Du-145
[46] = PC-3, PC3 cell line, inhibition of cancer cell proliferation, read-out: Prostate cancer EC50 PC3
[47] = 22Rv1 cell line, inhibition of cancer cell proliferation, read-out: Prostate cancer EC50 22Rv1
[48] = LNCap clone FGC cell line, inhibition of cancer cell proliferation, read-out: Prostate cancer EC50 LNCap clone FGC
[49] = VCaP (Sigma) cell line, inhibition of cancer cell proliferation, read-out: Prostate cancer EC50 VCaP (Sigma)

CLK3, sequence (P49761 whole entry): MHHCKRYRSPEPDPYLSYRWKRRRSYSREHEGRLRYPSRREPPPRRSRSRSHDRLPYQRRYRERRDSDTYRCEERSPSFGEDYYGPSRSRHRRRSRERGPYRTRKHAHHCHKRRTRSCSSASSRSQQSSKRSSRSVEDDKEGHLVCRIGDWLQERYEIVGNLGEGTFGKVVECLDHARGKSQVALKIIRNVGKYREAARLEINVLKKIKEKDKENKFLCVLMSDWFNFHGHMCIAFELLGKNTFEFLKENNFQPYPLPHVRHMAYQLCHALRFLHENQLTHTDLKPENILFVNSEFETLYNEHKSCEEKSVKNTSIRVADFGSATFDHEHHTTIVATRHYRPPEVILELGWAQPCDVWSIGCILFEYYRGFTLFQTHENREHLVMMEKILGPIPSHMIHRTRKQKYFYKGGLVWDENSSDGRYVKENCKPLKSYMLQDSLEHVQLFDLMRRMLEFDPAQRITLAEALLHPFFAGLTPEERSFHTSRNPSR
T1 sequence (P49760 whole entry): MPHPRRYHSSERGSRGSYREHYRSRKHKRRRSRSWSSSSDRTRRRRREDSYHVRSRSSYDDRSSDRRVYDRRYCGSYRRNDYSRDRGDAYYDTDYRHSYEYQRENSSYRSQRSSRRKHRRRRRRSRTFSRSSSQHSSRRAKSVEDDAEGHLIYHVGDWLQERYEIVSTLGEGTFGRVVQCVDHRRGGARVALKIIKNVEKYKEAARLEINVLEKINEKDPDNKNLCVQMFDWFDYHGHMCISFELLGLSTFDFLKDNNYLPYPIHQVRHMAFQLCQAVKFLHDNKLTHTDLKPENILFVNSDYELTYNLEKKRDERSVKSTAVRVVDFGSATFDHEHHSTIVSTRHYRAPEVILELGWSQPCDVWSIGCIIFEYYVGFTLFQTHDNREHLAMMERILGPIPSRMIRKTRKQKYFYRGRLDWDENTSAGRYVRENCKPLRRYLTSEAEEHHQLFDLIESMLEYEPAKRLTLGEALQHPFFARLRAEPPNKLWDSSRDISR

- EC50 (CLK2): 1.6 nM
- EC50 (BT-549): 480 nM
- EC50 (CAMA1): 1020 nM
- EC50 (DU4475): 131 nM
- EC50 (HCC1599): 379 nM
- EC50 (MCF7): 1810 nM
- EC50 (MDA-MB-231-Luc): 505 nM
- EC50 (T47D): 1240 nM
- EC50 (ZR-75-1): 519 nM
- EC50 [1, 8]: 0.15 µM
- EC50 [1, 9]: 0.455 µM
- EC50 [1, 10]: 0.066 µM
- EC50 [1, 11]: 0.132 µM
- EC50 [1, 12]: 0.057 µM
- EC50 [1, 13]: 0.165 µM
- EC50 [2, 14]: 0.106 µM
- EC50 [2, 15]: 0.013 µM
- EC50 [2, 16]: 0.089 µM
- EC50 [2, 17]: 0.074 µM
- EC50 [2, 18]: 1.13 µM
- EC50 [2, 19]: 0.032 µM
- EC50 [2, 20]: 0.271 µM
- EC50 [2, 21]: 0.067 µM
- EC50 [2, 22]: 0.185 µM
- EC50 [2, 23]: 0.145 µM
- EC50 [2, 24]: 0.314 µM
- EC50 [2, 25]: 0.921 µM
- EC50 [2, 26]: 0.065 µM
- EC50 [3, 27]: 31 nM
- EC50 [3, 28]: 2110 nM
- EC50 [3, 29]: 1600 nM
- EC50 [4, 30]: 0.177 µM
- EC50 [4, 31]: 0.9 µM
- EC50 [4, 32]: 0.454 µM
- EC50 [4, 33]: 0.103 µM
- EC50 [5, 34]: 0.147 µM
- EC50 [5, 35]: 0.292 µM
- EC50 [5, 36]: 0.847 µM
- EC50 [5, 37]: 0.162 µM
- EC50 [6, 38]: 462 nM
- EC50 [6, 39]: 323 nM
- EC50 [6, 40]: 249 nM
- EC50 [6, 41]: 120 nM
- EC50 [6, 42]: 752 nM
- EC50 [6, 43]: 578 nM
- EC50 [6, 44]: 190 nM
- EC50 [7, 45]: 179 nM
- EC50 [7, 46]: 313 nM
- EC50 [7, 47]: 121 nM
- EC50 [7, 48]: 1060 nM
- EC50 [7, 49]: 350 nM
- EC50 (CLK3): 11.9 nM
SMILES: CN1CCCCN(C)c2nccc3[nH]c(nc23)-c2n[nH]c3ccc(cc23)-c2cncc(c2)C1 [Compound 58]
- EC50 (all 50 cell lines): 441 nM

- EC50 (CLK2): 0.1 nM
- EC50 (BT-549): 1310 nM
- EC50 (CAMA1): 1910 nM
- EC50 (DU4475): 1000 nM
- EC50 (HCC1599): 146 nM
- EC50 (MCF7): > 3500 nM
- EC50 (MDA-MB-231-Luc): 2860 nM
- EC50 (T47D): > 3500 nM
- EC50 (ZR-75-1): 3410 nM
- EC50 [1, 8]: 1.17 µM
- EC50 [1, 9]: 1.54 µM
- EC50 [1, 10]: 0.886 µM
- EC50 [1, 11]: 2.21 µM
- EC50 [1, 12]: 0.63 µM
- EC50 [1, 13]: 1.57 µM
- EC50 [2, 14]: 0.894 µM
- EC50 [2, 15]: 0.147 µM
- EC50 [2, 16]: 2.31 µM
- EC50 [2, 17]: 1.23 µM
- EC50 [2, 18]: 3.06 µM
- EC50 [2, 19]: 0.409 µM
- EC50 [2, 20]: 1.77 µM
- EC50 [2, 21]: 0.455 µM
- EC50 [2, 22]: 2.01 µM
- EC50 [2, 23]: 0.952 µM
- EC50 [2, 24]: 2.52 µM
- EC50 [2, 25]: 2.92 µM
- EC50 [2, 26]: 0.317 µM
- EC50 [3, 27]: 381 nM
- EC50 [3, 28]: 2200 nM
- EC50 [3, 29]: > 3500 nM
- EC50 [4, 30]: 0.875 µM
- EC50 [4, 31]: > 3.5 µM
- EC50 [4, 32]: > 3.5 µM
- EC50 [4, 33]: 1.17 µM
- EC50 [5, 34]: 1.29 µM
- EC50 [5, 35]: 1.68 µM
- EC50 [5, 36]: > 3.5 µM
- EC50 [5, 37]: 0.89 µM
- EC50 [6, 38]: 3300 nM
- EC50 [6, 39]: 2760 nM
- EC50 [6, 40]: > 3500 nM
- EC50 [6, 41]: 1000 nM
- EC50 [6, 42]: > 3500 nM
- EC50 [6, 43]: > 3500 nM
- EC50 [6, 44]: 1800 nM
- EC50 [7, 45]: 1870 nM
- EC50 [7, 46]: 1030 nM
- EC50 [7, 47]: 1140 nM
- EC50 [7, 48]: > 3500 nM
- EC50 [7, 49]: 2000 nM
- EC50 (CLK3): 2.5 nM
SMILES: c1cncc(-c2ccc3[nH]nc(-c4cc5c(-c6cccnc6)cncc5[nH]4)c3c2)c1 [Compound 48]
- EC50 (all 50 cell lines): 3220 nM
